# Source: US12049450B2, “Pyridyloxy-carboxylate derivative and preparation method therefor, herbicidal composition, and use” (Qingdao Kingagroot Chemical Compound Co., Ltd., priority 2018, dated 2024)
# What was measured:
# Test in all cases: Post-emergence test experiment (greenhouse pot, spray at 2-3 leaf stage)
# Format in all cases: in vivo
# Conditions in all cases: 1000 g/ha; post-emergence spray at 2-3 leaf stage; assessed after 3 weeks; fresh weight inhibition rate
# Abutilon theophrasti = system: Abutilon theophrasti
# Summary of the method: (§1)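 Weed seeds sown in soil-filled pots in greenhouse, sprayed at 2-3 leaf stage (2 weeks after sowing) with compound in acetone/tween-80 plus methyl oleate emulsible concentrate (1.5 L/ha) diluted in water. Fresh-weight growth inhibition scored after 3 weeks on 0-5 scale (5: >85%, 0: <5%).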
# Digitaria sanguinalis = system: Digitaria sanguinalis
# Summary of the method: as §1
# Echinochloa crusgalli = system: Echinochloa crusgalli
# Summary of the method: as §1
# Galium spurium = system: Galium spurium
# Summary of the method: as §1
# Monochoria vaginalis = system: Monochoria vaginalis
# Summary of the method: as §1
SMILES,Activity level (growth inhibition rate) Abutilon theophrasti (Abutilon theophrasti),Activity level (growth inhibition rate) Digitaria sanguinalis (Digitaria sanguinalis),Activity level (growth inhibition rate) Echinochloa crusgalli (Echinochloa crusgalli),Activity level (growth inhibition rate) Galium spurium (Galium spurium),Activity level (growth inhibition rate) Monochoria Vaginalis (Monochoria vaginalis)
CC(Oc1nc(Cl)c(Cl)c(N)c1Cl)C(=O)SCc1ccccc1 (stereo not shown) [Compound 24],5 (Level 5: the growth inhibition rate is greater than 85%),5 (Level 5: the growth inhibition rate is greater than 85%),5 (Level 5: the growth inhibition rate is greater than 85%),5 (Level 5: the growth inhibition rate is greater than 85%),5 (Level 5: the growth inhibition rate is greater than 85%)
CC(Oc1nc(F)c(Cl)c(N)c1Cl)C(=O)OCC1CCCO1 (stereo not shown) [Compound 68],5 (Level 5: the growth inhibition rate is greater than 85%),5 (Level 5: the growth inhibition rate is greater than 85%),5 (Level 5: the growth inhibition rate is greater than 85%),5 (Level 5: the growth inhibition rate is greater than 85%),5 (Level 5: the growth inhibition rate is greater than 85%)
Cc1ccccc1COC(=O)C(C)Oc1nc(F)c(Cl)c(N)c1Cl (stereo not shown) [Compound 69],5 (Level 5: the growth inhibition rate is greater than 85%),5 (Level 5: the growth inhibition rate is greater than 85%),5 (Level 5: the growth inhibition rate is greater than 85%),5 (Level 5: the growth inhibition rate is greater than 85%),5 (Level 5: the growth inhibition rate is greater than 85%)
CC(Oc1nc(F)c(Cl)c(N)c1Cl)C(=O)SCc1cccc(C(C)C)c1 (stereo not shown) [Compound 71],5 (Level 5: the growth inhibition rate is greater than 85%),5 (Level 5: the growth inhibition rate is greater than 85%),5 (Level 5: the growth inhibition rate is greater than 85%),5 (Level 5: the growth inhibition rate is greater than 85%),5 (Level 5: the growth inhibition rate is greater than 85%)
CC(Oc1nc(F)c(Cl)c(N)c1Cl)C(=O)OCc1ccc(C(C)C)cc1 (stereo not shown) [Compound 72],5 (Level 5: the growth inhibition rate is greater than 85%),5 (Level 5: the growth inhibition rate is greater than 85%),5 (Level 5: the growth inhibition rate is greater than 85%),5 (Level 5: the growth inhibition rate is greater than 85%),5 (Level 5: the growth inhibition rate is greater than 85%)
C/C=C/c1ccc(CSC(=O)C(C)Oc2nc(F)c(Cl)c(N)c2Cl)cc1 (stereo not shown) [Compound 73],5 (Level 5: the growth inhibition rate is greater than 85%),5 (Level 5: the growth inhibition rate is greater than 85%),5 (Level 5: the growth inhibition rate is greater than 85%),5 (Level 5: the growth inhibition rate is greater than 85%),5 (Level 5: the growth inhibition rate is greater than 85%)
CC(Oc1nc(F)c(Cl)c(N)c1Cl)C(=O)OCc1ccc(C2CC2)cc1 (stereo not shown) [Compound 74],5 (Level 5: the growth inhibition rate is greater than 85%),5 (Level 5: the growth inhibition rate is greater than 85%),5 (Level 5: the growth inhibition rate is greater than 85%),5 (Level 5: the growth inhibition rate is greater than 85%),5 (Level 5: the growth inhibition rate is greater than 85%)
CC(Oc1nc(F)c(Cl)c(N)c1Cl)C(=O)OC(C)c1ccc(Br)cc1 (stereo not shown) [Compound 77],5 (Level 5: the growth inhibition rate is greater than 85%),5 (Level 5: the growth inhibition rate is greater than 85%),5 (Level 5: the growth inhibition rate is greater than 85%),5 (Level 5: the growth inhibition rate is greater than 85%),5 (Level 5: the growth inhibition rate is greater than 85%)
CC(Oc1nc(F)c(Cl)c(N)c1Cl)C(=O)OCc1cccc(I)c1 (stereo not shown) [Compound 78],5 (Level 5: the growth inhibition rate is greater than 85%),5 (Level 5: the growth inhibition rate is greater than 85%),5 (Level 5: the growth inhibition rate is greater than 85%),5 (Level 5: the growth inhibition rate is greater than 85%),5 (Level 5: the growth inhibition rate is greater than 85%)
CC(Oc1nc(F)c(Cl)c(N)c1Cl)C(=O)OCc1cc(F)ccc1F (stereo not shown) [Compound 79],5 (Level 5: the growth inhibition rate is greater than 85%),5 (Level 5: the growth inhibition rate is greater than 85%),5 (Level 5: the growth inhibition rate is greater than 85%),5 (Level 5: the growth inhibition rate is greater than 85%),5 (Level 5: the growth inhibition rate is greater than 85%)
CC(Oc1nc(F)c(Cl)c(N)c1Cl)C(=O)OCc1cccc(Cl)c1Cl (stereo not shown) [Compound 80],5 (Level 5: the growth inhibition rate is greater than 85%),5 (Level 5: the growth inhibition rate is greater than 85%),5 (Level 5: the growth inhibition rate is greater than 85%),5 (Level 5: the growth inhibition rate is greater than 85%),5 (Level 5: the growth inhibition rate is greater than 85%)
CC(Oc1nc(F)c(Cl)c(N)c1Cl)C(=O)SCc1cc(F)cc(Cl)c1 (stereo not shown) [Compound 81],5 (Level 5: the growth inhibition rate is greater than 85%),5 (Level 5: the growth inhibition rate is greater than 85%),5 (Level 5: the growth inhibition rate is greater than 85%),5 (Level 5: the growth inhibition rate is greater than 85%),5 (Level 5: the growth inhibition rate is greater than 85%)
COc1cccc(F)c1CSC(=O)C(C)Oc1nc(F)c(Cl)c(N)c1Cl (stereo not shown) [Compound 84],5 (Level 5: the growth inhibition rate is greater than 85%),5 (Level 5: the growth inhibition rate is greater than 85%),5 (Level 5: the growth inhibition rate is greater than 85%),5 (Level 5: the growth inhibition rate is greater than 85%),5 (Level 5: the growth inhibition rate is greater than 85%)
CC(Oc1nc(F)c(Cl)c(N)c1Cl)C(=O)OCc1cc([N+](=O)[O-])ccc1F (stereo not shown) [Compound 86],5 (Level 5: the growth inhibition rate is greater than 85%),5 (Level 5: the growth inhibition rate is greater than 85%),5 (Level 5: the growth inhibition rate is greater than 85%),5 (Level 5: the growth inhibition rate is greater than 85%),5 (Level 5: the growth inhibition rate is greater than 85%)
CC(Oc1nc(F)c(Cl)c(N)c1Cl)C(=O)SCc1cccc(C(=O)O)c1 (stereo not shown) [Compound 87],5 (Level 5: the growth inhibition rate is greater than 85%),5 (Level 5: the growth inhibition rate is greater than 85%),5 (Level 5: the growth inhibition rate is greater than 85%),5 (Level 5: the growth inhibition rate is greater than 85%),5 (Level 5: the growth inhibition rate is greater than 85%)
CC(Oc1nc(F)c(Cl)c(N)c1Cl)C(=O)OCc1cccc(O)c1 (stereo not shown) [Compound 89],5 (Level 5: the growth inhibition rate is greater than 85%),5 (Level 5: the growth inhibition rate is greater than 85%),5 (Level 5: the growth inhibition rate is greater than 85%),5 (Level 5: the growth inhibition rate is greater than 85%),5 (Level 5: the growth inhibition rate is greater than 85%)
CC(Oc1nc(F)c(Cl)c(N)c1Cl)C(=O)OCc1cccc(N)c1 (stereo not shown) [Compound 90],5 (Level 5: the growth inhibition rate is greater than 85%),5 (Level 5: the growth inhibition rate is greater than 85%),5 (Level 5: the growth inhibition rate is greater than 85%),5 (Level 5: the growth inhibition rate is greater than 85%),5 (Level 5: the growth inhibition rate is greater than 85%)
